In article PMC10580381 (ACS Pharmacology & Translational Science, 2023):
“And” between values parts separate entries of the source, which are not always exact repeats. Equal entries are not always repeated. “Also recorded” adds a separate entry of the source.

Assays:
α-tubulin acetylation = assay: Western blot of α-tubulin acetylation in H1975 cells; assay type: cell-based, human; settings: flunarizine up to 10 μM, 24 h
Experimental: After the cancer cells were treated with the designated drug candidates, they were harvested in lysis buffer (0.05 M HEPES, 0.15 M NaCl, 2 mM EDTA, 10% v/v glycerol, and 1% v/v Triton X-100, pH 7.4) supplemented with protease and phosphatase inhibitors. Sodium dodecyl sulfate poly(acrylamide) gel electrophoresis (SDS-PAGE) was used to separate the different proteins in the whole cell lysates, which were then transferred to a poly(vinylidene difluoride) membrane for immunoblot analysis using different specific antibodies (acetylated histone H3, acetylated α-tubulin, histone H3, or GAPDH; Cell Signaling Technology). The bands corresponding to specific proteins of interest were visualized by using the WesternBright ECL HRP substrate (Advansta, San Jose, California). A chemiluminescent Western blot signal was detected and analyzed using a ChemiDoc MP system (Bio-Rad Laboratories, Hercules, California).

recombinant human HDAC6 = target: T1, recombinant human HDAC6 (Homo sapiens, UniProt Q9UBN7); assay: biochemical; settings: IC50 HDAC6, recombinant HDAC6, mean ± SD, three independent experiments
T1 sequence (Q9UBN7 1-1215): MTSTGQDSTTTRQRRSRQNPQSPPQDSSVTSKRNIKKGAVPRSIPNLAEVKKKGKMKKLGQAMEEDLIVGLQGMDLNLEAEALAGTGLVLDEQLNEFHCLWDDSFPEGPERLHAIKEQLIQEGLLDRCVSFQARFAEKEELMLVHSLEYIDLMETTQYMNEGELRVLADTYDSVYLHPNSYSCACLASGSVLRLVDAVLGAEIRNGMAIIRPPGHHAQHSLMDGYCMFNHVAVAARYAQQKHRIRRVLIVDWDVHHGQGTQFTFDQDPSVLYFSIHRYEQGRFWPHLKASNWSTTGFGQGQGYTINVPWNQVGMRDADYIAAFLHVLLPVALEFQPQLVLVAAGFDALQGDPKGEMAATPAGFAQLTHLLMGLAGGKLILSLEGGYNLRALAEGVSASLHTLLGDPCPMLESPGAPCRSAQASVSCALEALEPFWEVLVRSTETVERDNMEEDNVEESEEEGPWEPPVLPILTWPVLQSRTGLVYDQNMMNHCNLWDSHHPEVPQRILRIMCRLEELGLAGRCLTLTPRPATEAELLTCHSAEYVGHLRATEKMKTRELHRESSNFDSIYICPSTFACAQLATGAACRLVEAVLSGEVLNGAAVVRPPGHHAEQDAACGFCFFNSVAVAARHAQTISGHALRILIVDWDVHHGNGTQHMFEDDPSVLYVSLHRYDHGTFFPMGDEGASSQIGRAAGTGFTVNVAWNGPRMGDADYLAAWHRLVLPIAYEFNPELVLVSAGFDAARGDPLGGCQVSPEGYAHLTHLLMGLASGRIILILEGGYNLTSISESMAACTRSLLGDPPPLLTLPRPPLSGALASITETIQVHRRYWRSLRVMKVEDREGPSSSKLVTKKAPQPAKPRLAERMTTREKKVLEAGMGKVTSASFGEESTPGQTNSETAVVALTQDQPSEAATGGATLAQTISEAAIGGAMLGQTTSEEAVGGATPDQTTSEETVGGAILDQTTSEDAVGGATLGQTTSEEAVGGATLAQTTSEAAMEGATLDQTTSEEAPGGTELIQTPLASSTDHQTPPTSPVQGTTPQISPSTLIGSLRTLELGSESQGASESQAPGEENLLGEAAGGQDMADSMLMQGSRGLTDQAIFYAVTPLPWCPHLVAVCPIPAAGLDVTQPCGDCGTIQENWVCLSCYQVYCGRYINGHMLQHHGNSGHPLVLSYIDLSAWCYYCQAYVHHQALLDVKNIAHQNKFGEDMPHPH

A549 cells = assay: SRB cell proliferation assay, A549; settings: Homo sapiens, A549, read-out: cell viability (%)
H820 cells [1] = system: H820 cells
H820 cells [2] = assay: cells; settings: Homo sapiens, NCI-H820, read-out: cell viability (%)
vimentin = assay: Western blot of vimentin in H1975 cells; assay type: cell-based, human; settings: concentration-dependent
H1975 cells [3] = assay: Wound healing assay; assay type: cell-based, human; settings: up to 48 h
Source text: After the cells had grown to about 80% confluence, a physical gap was created on the cell monolayer by scratching with a pipet tip. […] The scratch closure rate was estimated by the change in the wound width over time. It was presented as the relative gap width (%) by dividing the average distance between the two margins of the scratch at the indicated time by the initial distance at the start of the wound healing assay.

H1975 cells [4] = assay: Transwell invasion assay; assay type: cell-based, human; settings: flunarizine 5 or 10 μM, 48 h
H1975 cells [5] = settings: flunarizine alone 5 or 10 μM, 24 h (Figure 3)
Experimental: Afterward, ethanol was discarded, and the fixed cells were incubated with RNase I (25 μg/mL) at 37 °C for 30 min. Then, the cells were stained with propidium iodide (50 μg/mL) at room temperature for at least 1 h and analyzed by using a flow cytometer (BD LSRFortessa; BD Biosciences). At least 10,000 events were acquired for each sample. ModFit software (Verity Software House, Topsham, Maine) was used to analyze the cell cycle profile.

IC50 (recombinant human HDAC6): ~5.6 µM and 5.6 µM
Structure (SMILES): Fc1ccc(C(c2ccc(F)cc2)N2CCN(C/C=C/c3ccccc3)CC2)cc1 [flunarizine]
effect on acetylation of α-tubulin (α-tubulin acetylation): did not affect acetylation of α-tubulin; also recorded: did not affect the acetylation
viability at 2.5 µM (A549 cells): 101 ± 5%
viability at 5 µM (A549 cells): 95 ± 6%
viability at 10 µM (A549 cells): 102 ± 8%
viability (H820 cells [1]): 89 ± 5%
viability at 2.5 µM (H820 cells [2]): 103 ± 5%
viability at 5 µM (H820 cells [2]): 94 ± 7%
vimentin expression (vimentin): downregulate
cancer cell migration (H1975 cells [3]): inhibited the cell migration ability
cancer cell invasion (H1975 cells [4]): inhibition
G1 cell cycle arrest (H1975 cells [5]): induce G1 cell cycle arrest
effect on cell viability of BEAS-2B (BEAS-2B): did not appreciably affect the cell viability
